From US6849649B2, “N-phenpropylcyclopentyl-substituted glutaramide derivatives as inhibitors of neutral endopeptidase” (Pfizer Inc., priority 2001, dated 2005)
Structures can show the parent of a compound that is named as a salt. Where two headings read alike, the source gives them in different places.

Assays:
[1] = target: T1, NEP from canine kidney (Canis lupus familiaris, UniProt A0A8I3PBM8); assay: IC50 against NEP (canine kidney); type: biochemical
T1 construct: determined using NEP from canine kidney; from tissue; host or cells: canine kidney
T1 sequence (A0A8I3PBM8 1-749): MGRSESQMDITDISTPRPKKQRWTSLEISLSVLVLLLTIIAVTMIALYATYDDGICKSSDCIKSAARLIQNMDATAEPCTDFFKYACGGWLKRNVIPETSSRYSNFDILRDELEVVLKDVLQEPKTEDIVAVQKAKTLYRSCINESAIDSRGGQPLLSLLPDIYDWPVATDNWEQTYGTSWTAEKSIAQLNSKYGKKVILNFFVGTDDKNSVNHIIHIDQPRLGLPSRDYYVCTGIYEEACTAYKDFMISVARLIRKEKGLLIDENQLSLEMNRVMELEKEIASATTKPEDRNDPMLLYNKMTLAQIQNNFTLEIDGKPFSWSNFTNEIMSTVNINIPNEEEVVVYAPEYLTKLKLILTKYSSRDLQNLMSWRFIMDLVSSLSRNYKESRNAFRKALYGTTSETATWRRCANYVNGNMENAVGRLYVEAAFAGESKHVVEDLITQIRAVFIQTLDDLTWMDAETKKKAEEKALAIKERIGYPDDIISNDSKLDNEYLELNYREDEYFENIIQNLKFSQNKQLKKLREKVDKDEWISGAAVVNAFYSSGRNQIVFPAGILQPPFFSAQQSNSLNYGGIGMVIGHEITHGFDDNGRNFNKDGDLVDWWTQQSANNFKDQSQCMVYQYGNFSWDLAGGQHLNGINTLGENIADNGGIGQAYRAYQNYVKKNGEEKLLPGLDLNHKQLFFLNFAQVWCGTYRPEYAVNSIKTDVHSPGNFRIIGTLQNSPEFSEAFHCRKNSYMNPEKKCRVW
Description: The IC50 values presented below were determined using NEP from canine kidney.

[2] = NEP from canine kidney, read-out: IC50 against NEP

Structure (SMILES) | IC50 [1, 2] | melting point | IC50 [1]
COCCC(CC1(C(=O)NCCCc2ccc(F)cc2)CCCC1)C(=O)O (centres unmarked) [Example 4, 2-{[1-({[3-(4-fluorophenyl)propyl]amino}carbonyl)cyclopentyl]methyl}-4-methoxybutanoic acid] |  |  | 0.004 µM
CC(CCNC(=O)C1(CCC(=O)O)CCCC1)c1ccc2c(c1)CCO2 (centres unmarked) [Example 51] | 0.009 µM |  | 
COCCC(CC1(C(=O)NCCCc2ccc(OC)cc2)CCCC1)C(=O)O (centres unmarked) (as salt: sodium) [Example 1, 4-Methoxy-2-{[1-({[3-(4-methoxyphenyl)propyl]amino}carbonyl)cyclopentyl]-methyl}butanoic acid] |  | 214 to 216 °C | 

Continued by falling IC50 [1, 2], values first:

IC50 [1, 2] | melting point | IC50 [1] | Structure (SMILES)
0.047 µM |  |  | O=C(O)CCC1(C(=O)NCCCc2cccc3ccccc23)CCCC1 [Example 33]
0.029 µM |  |  | COCC[C@H](CC1(C(=O)NCCCc2ccc3c(c2)OCCO3)CCCC1)C(=O)O [Example 43]
0.022 µM |  |  | COCCC(CC1(C(=O)NC(C)COc2ccccc2Cl)CCCC1)C(=O)O (centres unmarked) [Example 3]
0.003 µM | 94.5 to 97 °C |  | O=C(O)CCC1(C(=O)NCCCc2ccc3c(c2)CCO3)CCCC1 [Example 21]
